Patent publication US10172843B2, “Piperidine derivatives” (Hoffmann-La Roche Inc., priority 2014, dated 2019)

Target: human Cat S (Homo sapiens (Human), UniProt P25774)
Assay: Cathepsin enzyme inhibition assay (fluorogenic peptide substrate)
Type: biochemical
Settings: human Cat S, enzyme 1 nM, substrate Z-Val-Val-Arg-AMC, pH 6.5; read-out: CatS IC50
Procedure: Cathepsin Enzyme Inhibition Assay
Enzyme activity is measured by observing the increase in fluorescence intensity caused by cleavage of a peptide substrate containing a fluorophore whose emission is quenched in the intact peptide.
Assay buffer: 100 mM potassium phosphate pH 6.5, EDTA-Na 5 mM, Triton X-100 0.001%, DTT 5 mM.
Enzymes (all at 1 nM): human and mouse Cathepsin S, Cat K, Cat B, Cat L.
Substrate ([…], except for Cat K which uses Z-Leu-Arg-AMC (both from Bachem).
Excitation 360 nm, Emission 465 nm.
Enzyme is added to the substance dilutions in 96-well microtitre plates and the reaction is started with substrate. […] IC50 are calculated by standard methods.
Inhibition of human Cat S, mouse Cat S, human Cat K, mouse Cat K, human Cat B, mouse Cat B, human Cat L and mouse Cat L have been measured separately.

Sequence of human Cat S (P25774 115-331): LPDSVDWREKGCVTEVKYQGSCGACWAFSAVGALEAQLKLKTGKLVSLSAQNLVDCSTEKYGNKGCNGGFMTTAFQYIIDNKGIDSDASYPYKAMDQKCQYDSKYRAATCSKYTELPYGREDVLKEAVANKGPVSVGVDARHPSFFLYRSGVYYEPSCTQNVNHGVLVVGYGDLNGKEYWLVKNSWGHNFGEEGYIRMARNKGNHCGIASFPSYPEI

| IC50 [nM] | Structure (SMILES) |
| --- | --- |
| 317 | COCCn1c(-c2ccc(C(F)(F)F)cc2)nc(CN2CCC(N3Cc4ccccc4NC3=O)CC2)c1C [Example 76, 3-{1-[1-(2-Methoxy-ethyl)-5-methyl-2-(4-trifluoromethyl-phenyl)-1H-imidazol-4-ylmethyl]-piperidin-4-yl}-3,4-dihydro-1H-quinazolin-2-one] |
| 155 | Cc1[nH]c(-c2ccc(S(=O)(=O)C(F)(F)F)cc2)nc1CN1CCC(c2c[nH]c3ccncc23)CC1 [Example 77, 3-{1-[5-Methyl-2-(4-trifluoromethanesulfonyl-phenyl)-1H-imidazol-4-ylmethyl]-piperidin-4-yl}-1H-pyrrolo[3,2-c]pyridine] |
| 1070 | Cc1[nH]c(-c2ccc(S(=O)(=O)CC(C)C)cc2)nc1CN1CCC(N2Cc3ccccc3NC2=O)CC1 [Example 78, 3-(1-{5-Methyl-2-[4-(2-methyl-propane-1-sulfonyl)-phenyl]-1H-imidazol-4-ylmethyl}-piperidin-4-yl)-3,4-dihydro-1H-quinazolin-2-one] |
| 99 | Cc1[nH]c(-c2ccc(S(=O)(=O)Cc3ccccc3)cc2)nc1CN1CCC(N2Cc3ccccc3NC2=O)CC1 [Example 80, 3-{1-[5-Methyl-2-(4-phenylmethanesulfonyl-phenyl)-1H-imidazol-4-ylmethyl]-piperidin-4-yl}-3,4-dihydro-1H-quinazolin-2-one] |

| Structure (SMILES) | IC50 [nM] |
| --- | --- |
| Cc1[nH]c(-c2ccc(S(=O)(=O)C(F)(F)F)cc2)nc1CN1CCC(n2c(=O)n(C)c3ccccc32)CC1 [Example 75, 1-Methyl-3-{1-[5-methyl-2-(4-trifluoromethanesulfonyl-phenyl)-1H-imidazol-4-ylmethyl]-piperidin-4-yl}-1,3-dihydro-benzoimidazol-2-one] | 60 |
| Cc1[nH]c(-c2ccc(S(=O)(=O)CC(C)C)cc2)nc1CN1CCC(n2c(=O)n(C)c3ccccc32)CC1 [Example 79, 1-Methyl-3-(1-{5-methyl-2-[4-(2-methyl-propane-1-sulfonyl)-phenyl]-1H-imidazol-4-ylmethyl}-piperidin-4-yl)-1,3-dihydro-benzoimidazol-2-one] | 2870 |
| Cc1[nH]c(-c2ccc(S(=O)(=O)Cc3ccccc3)cc2)nc1CN1CCC(n2c(=O)n(C)c3ccccc32)CC1 [Example 81, 1-Methyl-3-{1-[5-methyl-2-(4-phenylmethanesulfonyl-phenyl)-1H-imidazol-4-ylmethyl]-piperidin-4-yl}-1,3-dihydro-benzoimidazol-2-one] | 170 |
